Laboratory results reported in article PMC5531531, “A synthetic cationic antimicrobial peptide inhibits inflammatory response and the NLRP3 inflammasome by neutralizing LPS and ATP” (PLoS ONE, 2017).
No end group written: not given here.

Legend:
[1] = tested on: iNOS and COX-2 in E. coli-LPS-activated RAW 264.7 macrophages; assay: iNOS and COX-2 expression (Western blot, quantitative real-time PCR); type: cell-based, mouse
Procedure: (§1) The protein expression levels of iNOS, COX-2, ERK1/2, JNK1/2, p38, IκB-α, PKC, caspase-1 and the phosphorylation levels of ERK1/2, JNK1/2, p38, PKC-α, PKC-δ, IκB-α were determined by Western blotting as described in detail previously.
RAW 264.7 (2 × 10^6 in 2 ml of medium) were seeded in 6-cm dishes and then treated with or without LPS (0.1 μg/ml) in the absence or presence of AMP for 6 h. Total RNA was extracted from the treated cells by TRIzol reagent (Gibco, Grand Island, NY, USA) and the cDNA was prepared as described in detail previously. The mRNA expression levels of iNOS and COX-2 were measured by quantitative real-time PCR using the StepOne real-time PCR system (Applied Biosystems, Foster City, CA, USA). The primers used were: for mouse iNOS, forward 5- […]-3 and reverse 5-TGAACGAGGAGGGTGGTG-3; for mouse COX-2, forward 5-[…]-3 and reverse 5-[…]-3. The gene expression data are presented as the relative expression (LPS group as 100%) normalized to that of glyceraldehyde-3-phosphate dehydrogenase (GAPDH).

[2] = tested on: C57BL/6 mice injected with E. coli LPS; type: in vivo, mouse
Procedure: The expression levels of IL-1β, IL-6 and TNF-α in the conditional medium, sera and lavage fluids were measured by ELISA as described in detail previously.
as §1
Experiments were performed on 8-week-old male C57BL/6 mice purchased from the National Laboratory Animal Center (Taipei, Taiwan). The mice were randomized into the following four groups: Group I: control, intraperitoneal injection of 100 μl of sterile PBS, n = 3; Group II: LPS, intraperitoneal injection of 100 μl of sterile PBS containing E. coli LPS (10 mg/kg), n = 5; Group III: GW-A2+LPS, intraperitoneal injection of 100 μl of sterile PBS containing E. coli LPS (10 mg/kg) and GW-A2 (10 mg/kg), n = 5. Group IV: AMP, intraperitoneal injection of 100 μl of sterile PBS containing GW-A2 (10 mg/kg), n = 3. Sera were collected for analysis at 4 h after LPS injection. Peritoneal lavages, lungs and livers were collected for analysis at 24 h after LPS injection.
Lungs, livers and kidney were fixed in 10% formalin and paraffin-embedded, then 4 um thick sections were cut and stained with hematoxylin and eosin was described in detail previously. Scoring of the polymorphonuclear neutrophils (PMN) infiltration was determined by counting in 5 randomly sampled fields by light microscopy at a magnification of x400 evaluated by a pathologist in National Defense Medical Center (Taipei, Taiwan).

[3] = tested on: PGN-, Pam3CSK4- and CPS-activated RAW 264.7 macrophages; assay: NO generation induced by other bacterial components in RAW 264.7 (Griess reaction); type: cell-based, mouse; conditions: 24 h, Fig 1B
Procedure: RAW 264.7 cells (2 × 10^5 in 0.5 ml of medium) were seeded in 24-well plates and then incubated with or without LPS (0.1 μg/ml) in the absence or presence of AMP for 24 h. The effects of AMP on NO production were measured indirectly by analyzing nitrite levels using the Griess reaction as described in detail previously.
Fig 1 Effects of GW-A2 on the expression levels of inflammatory mediators. (A) RAW 264.7 macrophages were incubated for 30 min with or without GW-A2 or scrambled GW-A2, followed by incubation with or without 0.1 μg/ml of E. coli LPS or Salmonella LPS for 24 h. The levels of NO in the culture medium were measured by the Griess reaction. (B) RAW 264.7 macrophages were incubated for 30 min with or without GW-A2, followed by incubation with or without peptidoglycan (20 μg/ml), Pam3CSK4 (0.2 μg/ml) or capsular polysaccharide (3 μg/ml) for 24 h. The levels of NO in the culture medium were measured by the Griess reaction. (C) RAW 264.7 macrophages were incubated for 30 min with or without GW-A2, followed by incubation with or without 0.1 μg/ml of E. coli LPS for 24 h. The levels of iNOS and COX-2 were assessed by Western blotting and the histograms represent the expression levels compared to the LPS alone group obtained in three different experiments. (D) RAW 264.7 macrophages were incubated for 30 min with or without GW-A2, followed by incubation with or without 0.1 μg/ml of E. coli LPS for 6 h. The mRNA levels of iNOS and COX-2 were assessed by quantitative real-time PCR. (E and F) RAW 264.7 macrophages (E) and human THP-1 macrophages (F) were incubated for 30 min with or without GW-A2, followed by incubation with or without 0.1 μg/ml of E. coli LPS for 24 h. The levels of TNF-α and IL-6 were assayed by ELISA. […] The cell proliferation was measured by AlamarBlue® assay. The data are expressed as the mean ± SD of three independent experiments. *, ** and *** indicate significant differences, representing p < 0.05, p < 0.01 and p < 0.001, respectively compared to stimulation alone. # indicates significant differences, representing p < 0.05 compared to 2 μM of GW-A2 group.

[4] = Western blot, E. coli LPS 0.1 μg/ml 24 h, Fig 1C
[5] = quantitative real-time PCR, E. coli LPS 0.1 μg/ml 6 h, Fig 1D
[6] = i.p. E. coli LPS 10 mg/kg with GW-A2 10 mg/kg, n = 5, sera 4 h after LPS, ELISA, Fig 5A

For GAKYAKIIYNYLKKIANALW [GW-A2], the “COX-2 protein expression level” value [1, 4] was “inhibited”, the “iNOS protein expression level” value [1, 4] was “inhibited” and the “Inhibitory activity on COX-2 protein expression, 4 μM compared to 2 μM” value ([1]; Western blot, 4 μM of GW-A2 compared to 2 μM) was “lower inhibitory activity”. For the same sequence, the “COX-2 mRNA expression level” value [1, 5] was “inhibited”, the “iNOS mRNA expression level” value [1, 5] was “inhibited” and the “IL-1β level in the sera” value [2, 6] was “significantly reduced”. For the same sequence, the “IL-6 level in the sera” value [2, 6] was “significantly reduced”, the “TNF-α level in the sera” value [2, 6] was “significantly reduced” and the “Infiltration of PMN into the lung and liver” value ([2]; i.p. LPS 10 mg/kg with GW-A2 10 mg/kg, 24 h, H&E, 5 fields x400, Fig 5D, 5E) was “reduced”. The “Expression levels of iNOS, COX-2 and NLRP3 in the lung and liver” value ([2]; i.p. LPS 10 mg/kg with GW-A2 10 mg/kg, tissues 24 h after LPS, Western blot, Fig 5C) was “reduced”, the “Adverse effects in GW-A2-injected mice” value ([2]; mouse, in vivo, ip, 10 mg/kg) was “no adverse effects were observed” and the “Behaviors of GW-A2-injected mice versus control mice” value ([2]; mouse, in vivo, ip, 10 mg/kg) was “not significantly different”. For the same sequence, the “NO inhibitory activity in Pam3CSK4-activated macrophages” value ([3]; Pam3CSK4 0.2 μg/ml) was “much lower than that in LPS-activated macrophages”, the “NO inhibitory activity in CPS-activated macrophages” value ([3]; capsular polysaccharide 3 μg/ml) was “much lower than that in LPS-activated macrophages” and the “NO inhibitory activity in PGN-activated macrophages” value ([3]; peptidoglycan 20 μg/ml) was “much lower than that in LPS-activated macrophages”.
